Results reported in patent US20140135359A1, “METHODS OF DESIGNING, PREPARING, AND USING NOVEL PROTONOPHORES” (priority 2012, published 2014).

Key:
[1] = tested on: isolated rat liver mitochondria; assay: Uncoupling activity: increase in basal (state 4) oxygen consumption by oxygraphy; format: biochemical; details: for Measured Uncoupling Activity (% uncoupling ± SEM @ 100 μM): Suppl. Table 1, 2-3 mitochondrial preparations; for Measured Uncoupling (% uncoupling ± SEM @ 100 μM): Table 1A, relative to ADP-stimulated respiration = 100%; for Uncoupling (%): increase in basal (state 4) oxygen consumption as % of average ADP-stimulated (state 3) rate in vehicle-treated mitochondria
[2] = tested on: isolated rat liver mitochondria; assay: Residual functional capacity / inhibitory effect on ADP-stimulated (state 3) oxygen consumption; format: biochemical; details: for inhibitory effect on oxidative phosphorylation: 50 μM (FIG. 19); for Residual capacity (%): functional capacity (state 3 minus state 4 rate) as % of vehicle-treated mitochondria
[3] = tested on: glucose-6-phosphatase (G6Pase) activity in H4IIE hepatocytes; assay: Glucose-6-phosphatase activity in H4IIE hepatocytes; format: cell-based, murine; details: 16 h; for suppression of G6Pase activity: 12.5 μM, result in words; for increase in G6Pase activity: 1 μM
Protocol: 2.4 Glucose-6-phosphatase activity in H4IIE hepatocytes: H4IIE murine hepatocytes (American Type Culture Collection) were cultured to confluence in 12-well plates in DMEM supplemented with 10% FBS and antibiotics. […] Effects of test compounds on cellular viability were assessed by measuring the release of lactate dehydrogenase (LDH) into the culture medium at the end of a 16 h treatment using a commercial kit (Cytotoxicity Detection Kit; Roche Diagnostics; Laval, QC) as per the manufacturer's instructions; LDH release was expressed as % of total (medium+lysate) LDH content for each well. Cells were also routinely inspected for abnormal morphology by phase-contrast microscopy at the conclusion of the treatment period. Following treatment, cells were washed in HEPES-buffered saline (10 mM HEPES, pH 7.4, 150 mM NaCl) at 37° C. Glucose-6-phosphatase (G6Pase) activity was assessed by measuring the rate of glucose formation in the presence of a non-limiting amount of glucose-6-phosphate (G6P), as done by others [39B, 40B]. Glucose production was measured with a commercial glucose assay kit (AutoKit Glucose; Wako Diagnostics; Richmond, Va.). Two hundred μl of AutoKit Glucose buffer solution diluted 1:4 in water were added to each well. Cells were then lysed by the addition of 50 μl of 0.05% Triton X-100 in similarly diluted AutoKit Glucose buffer solution. […] At 37° C., after which time 500 μl of AutoKit Glucose color reagent were added and incubation was continued for exactly 5 min. Samples were then rapidly transferred to microcentrifuge tubes. Fifty μl were removed for assay of total protein content in order to account for effects of test compounds on cellular viability or proliferation [41B]. A commercial protein assay kit based on the Bradford method was used (Protein Assay; Bio-Rad Laboratories; Hercules, Calif.). […] The remaining volume was centrifuged at 3000×g for 5 min. Absorbance of the supernatant was measured at 505 nm at ambient temperature and glucose concentration was calculated from a standard curve performed in parallel. Control wells without exogenous G6P were included on each plate for each treatment condition and activity measured from these wells was subtracted from activity measured in the presence of exogenous G6P. G6Pase activity calculated in this way was then expressed normalized to protein content on a well-by-well basis. Two independent experiments in cells of different passages were performed for each of the selected test compounds, with four to six replicates per condition per experiment.
Protocol for assay of glucose-6-phosphatase activity in H4IIE or other hepatocytes: H4IIE murine hepatocytes (American Type Culture Collection) may be cultured to confluence in 12-well plates in Dulbecco's modified Eagle's medium (DMEM) supplemented with 10% fetal bovine serum (FBS), and antibiotics. […] Effects of test compounds on cellular viability may be assessed by measuring the release of lactate dehydrogenase (LDH) into the culture medium at the end of a 16 hour treatment using a commercial kit (e.g., Cytotoxicity Detection Kit; Roche Diagnostics; Laval, QC) as per the manufacturer's instructions; LDH release may be expressed as % of total (i.e., medium+lysate) LDH content for each well. Cells may also be routinely inspected for abnormal morphology by phase-contrast microscopy at the conclusion of the treatment period. Following treatment, cells may be washed in HEPES-buffered saline (10 mM HEPES, pH 7.4, 150 mM NaCl) at 37° C. Glucose-6-phosphatase (G6Pase) activity may be assessed by measuring the rate of glucose formation in the presence of a non-limiting amount of glucose-6-phosphate (G6P). Glucose production may be measured with a commercial glucose assay kit (e.g., AutoKit Glucose; Wako Diagnostics; Richmond, Va.). Two hundred μl of AutoKit Glucose buffer solution diluted 1:4 in water may be added to each well.

[4] = tested on: differentiated C2C12 skeletal muscle cells; assay: 3H-deoxyglucose uptake in C2C12 myotubes; format: cell-based, murine; details: 18 h
Protocol: 2.3 ^3H-deoxyglucose uptake in C2C12 myotubes: Cell culture and the ^3H-deoxyglucose uptake assay were performed as previously described [34B, 35B, 37B]. Briefly, C2C12 murine skeletal myoblasts (American Type Culture Collection; Manassas, Va.) were cultured under standard conditions in 12-well plates. Cells were proliferated to 80% confluence in high-glucose Dulbecco's modified Eagle's medium (DMEM; Wisent; St-Bruno, QC) supplemented with 10% fetal bovine serum (FBS; Wisent), 10% horse serum (HS), and antibiotics. Differentiation into multinucleated myotubes was then promoted with DMEM supplemented with 2% HS and antibiotics. All uptake assays were performed on 7-day differentiated cells, and treatments were timed accordingly. […] DMSO concentration was fixed at 0.1% for all conditions. Cells were routinely inspected for abnormal morphology by phase-contrast microscopy at the conclusion of the treatment period. […] Cells were then washed twice in glucose-free KPB at 37° C. before incubation for exactly 10 min at 37° C. in glucose-free KPB containing 0.5 μCi/ml 2-deoxy-D-[1-^3H]glucose (Amersham Biosciences; Buckinghamshire, UK). Cells were then placed on ice and immediately washed three times with ice-cold KPB. Cells were inspected for monolayer detachment and lysed in 0.1 N NaOH with scraping. […] Three independent experiments of 18 h treatment duration were performed for each of the selected test compounds, with three replicates per condition per experiment. Vehicle-control and 50 μM 2,4-dinitrophenol conditions were included on every plate. Some compounds were also tested at 50 μM under the following conditions: a 15 h treatment with vehicle only followed by a 3 h treatment with the test compound; a 15 h treatment with the test compound followed by a 3 h repeat treatment.
Protocol for ^3H-deoxyglucose uptake assay in C2C12 or other skeletal muscle cells; C2C12 murine skeletal myoblasts (American Type Culture Collection; Manassas, Va.) may be cultured under standard conditions in 12-well plates. Cells may be proliferated to 80% confluence in high-glucose Dulbecco's modified Eagle's medium (DMEM) supplemented with 10% fetal bovine serum (FBS), 10% horse serum (HS), and antibiotics. Differentiation into multinucleated myotubes may be then promoted with DMEM supplemented with 2% HS and antibiotics. All uptake assays may be performed on 7-day differentiated cells, and treatment onset may be timed accordingly. Cells may be treated with reference substances (such as metformin (100 or 400 μM), phenformin (100 μM), or 2,4-dinitrophenol 10-100 μM), compounds described herein, or vehicle (DMSO) in complete differentiation medium. DMSO concentration may be fixed at 0.1% for all conditions. Cells may be routinely inspected for abnormal morphology by phase-contrast microscopy at the conclusion of the treatment period. […] Cells may be then washed twice in glucose-free KPB at 37° C. before incubation for exactly 10 min at 37° C. in glucose-free KPB containing 0.5 μCi/ml 2-deoxy-D-[1-3H]glucose (Amersham Biosciences; Buckinghamshire, UK). Cells may be then placed on ice and immediately washed three times with ice-cold KPB. Cells may be inspected for monolayer detachment and lysed in 0.1 N NaOH with scraping. […] Three or more independent experiments of 18 hours treatment duration may be performed for each test compound, with three or more replicates per condition per experiment. Vehicle-control and 2,4-dinitrophenol conditions may be included on every plate for the purpose of standardizing.

C2C12 myotubes = assay: Morphology / monolayer detachment inspection of treated myotubes; format: cell-based, murine; details: 100 μM, 18 h
Protocol: 2.3 ^3H-deoxyglucose uptake in C2C12 myotubes: Cell culture and the ^3H-deoxyglucose uptake assay were performed as previously described [34B, 35B, 37B]. Briefly, C2C12 murine skeletal myoblasts (American Type Culture Collection; Manassas, Va.) were cultured under standard conditions in 12-well plates. Cells were proliferated to 80% confluence in high-glucose Dulbecco's modified Eagle's medium (DMEM; Wisent; St-Bruno, QC) supplemented with 10% fetal bovine serum (FBS; Wisent), 10% horse serum (HS), and antibiotics. Differentiation into multinucleated myotubes was then promoted with DMEM supplemented with 2% HS and antibiotics. All uptake assays were performed on 7-day differentiated cells, and treatments were timed accordingly. […] DMSO concentration was fixed at 0.1% for all conditions. Cells were routinely inspected for abnormal morphology by phase-contrast microscopy at the conclusion of the treatment period. […] Cells were then washed twice in glucose-free KPB at 37° C. before incubation for exactly 10 min at 37° C. in glucose-free KPB containing 0.5 μCi/ml 2-deoxy-D-[1-^3H]glucose (Amersham Biosciences; Buckinghamshire, UK). Cells were then placed on ice and immediately washed three times with ice-cold KPB. Cells were inspected for monolayer detachment and lysed in 0.1 N NaOH with scraping. […]

| Compound | Measured Uncoupling Activity (% uncoupling ± SEM @ 100 μM) ([1]; 100 μM) | Uncoupling (%) ([1]; test conc. 25 μM) | Uncoupling (%) ([1]; test conc. 100 μM) | Inhibitory effect (%) ([2]; test conc. 25 μM) | Residual capacity (%) ([2]; test conc. 25 μM) | Inhibitory effect (%) ([2]; test conc. 100 μM) | Residual capacity (%) ([2]; test conc. 100 μM) | further results |
| --- | --- | --- | --- | --- | --- | --- | --- | --- |
| O=C(/C=C/c1ccc(O)c(O)c1)c1ccc(O)cc1O [butein] | 71 ± 4 % uncoupling | 26 ± 4% | 71 ± 4% | 23% | 51 ± 12% | 29% | 0 ± 0% | uncoupling activity ([1]; 50 μM in 0.1% DMSO (FIG. 19)): partial uncoupling; Measured Uncoupling (% uncoupling ± SEM @ 100 μM) ([1]; 100 μM): 71 ± 4 % uncoupling; inhibitory effect on oxidative phosphorylation [2]: inhibition of ADP-stimulated consumption; suppression of G6Pase activity [3]: exceeding the effect of metformin at 400 μM; increase in basal glucose uptake ([4]; at ⅛th of metformin's concentration (400 μM)): 269%; effect on basal glucose uptake relative to metformin ([4]; metformin 400 μM): more than 6 fold |
| O=C(/C=C/c1ccccc1)c1ccccc1 [chalcone] | −6 ± 0 % uncoupling |  | −6 ± 0% |  |  | 65% | 35 ± 5% | uncoupling activity ([1]; 50 μM in 0.1% DMSO (FIG. 19)): devoid of uncoupling activity; uncoupling activity ([1]; 100 μM, result in words): inactive; inhibitory effect on oxidative phosphorylation [2]: small inhibitory effect; inhibition of ADP-stimulated oxygen consumption ([2]; screening at 100 μM): inhibitory activity; suppression of G6Pase activity [3]: did not suppress G6Pase activity |
| COc1cc(/C=C/C(=O)CC(=O)/C=C/c2ccc(O)c(OC)c2)ccc1O [curcumin] |  | 42 ± 8% | 79 ± 6% | 17% | 41 ± 9% | 21% | 0 ± 0% | indications of cytotoxicity (C2C12 myotubes): increased susceptibility to monolayer detachment |
| C[C@@H]1C[C@H]2[C@@H]3CCC4=CC(=O)C=C[C@]4(C)[C@@]3(F)[C@@H](O)C[C@]2(C)[C@@]1(O)C(=O)CO [dexamethasone] |  |  |  |  |  |  |  | increase in G6Pase activity [3]: 56%; increase in G6Pase activity ([3]; listed as Dexamethasone): 56±10% |
| O=C(/C=C/c1ccc(O)cc1)c1ccc(O)cc1O [isoliquiritigenin] | 108 ± 7 % uncoupling | 24 ± 3% | 108 ± 7% | 11% | 65 ± 6% | 0% | 0 ± 0% | uncoupling activity ([1]; 100 μM, result in words): complete uncoupling; Measured Uncoupling (% uncoupling ± SEM @ 100 μM) ([1]; 100 μM): >100 % uncoupling; suppression of G6Pase activity [3]: exceeding the effect of metformin at 400 μM |
| O=c1c(O)c(-c2ccc(O)cc2)oc2cc(O)cc(O)c12 [kaempferol] | 25 ± 2 % uncoupling | 10 ± 1% | 25 ± 2% | 28% | 62 ± 5% | 47% | 28 ± 4% | indications of cytotoxicity (C2C12 myotubes): decreased uptake relative to vehicle-control levels |
| CN(C)C(=N)N=C(N)N [metformin] |  |  |  |  |  |  |  | suppression of G6Pase activity per mg total protein ([3]; 400 μM): 56%; increase in basal glucose uptake ([4]; 400 μM): 43% |
| [H]/N=C(/N)N/C(=N/[H])NCCc1ccccc1 [phenformin] |  |  |  |  |  |  |  | increase in basal glucose uptake ([4]; 100 μM): 48% |
| Oc1cc(O)cc(/C=C/c2ccccc2)c1 [trans-pinosylvin, pinosylvin] | 3 ± 3 % uncoupling | 0 ± 1% | 3 ± 3% | 20% | 80 ± 13% | 34% | 63 ± 4% |  |
| COc1cc(C=O)ccc1O [vanillin] | 0 ± 1 % uncoupling |  | 0 ± 1% |  |  | 26% | 74 ± 16% |  |
| epigallocatechin gallate [(−) epigallocatechin gallate] | 0 ± 1 % uncoupling |  | 0 ± 1% |  |  | 2% | 98 ± 2% |  |
